Results as given in US6946447B2, “MDM2-specific antisense oligonucleotides” (Hybridon, Inc., priority 1997, dated 2005).

Columns and labels:
MDM2 = settings: SJSA and JAR cells; cited from earlier work
[1] = system: MDM2, p53 and p21 protein levels in LS174T cells; experiment: Western blot of MDM2, p53 and p21 in LS174T cells; assay type: cell-based, human; settings: 24 hr, Lipofectin
[2] = system: MDM2, p53 and p21 protein levels in LS174T cells; experiment: Western blot of MDM2, p53 and p21 in LS174T cells; assay type: cell-based, human; settings: 400 nM Oligo 24 hr
Text: Chemicals and Reagents. Cell culture media and phosphate-buffered saline (PBS) were obtained from Sigma Chemical Co. (St. Louis, Mo.). Fetal bovine serum (FBS), antibodies against p53 and p21, Lipofectin, trypsin, penicillin-streptomycin, and trypan blue stain were purchased from GIBCO-BRL (Grand Island, N.Y.). The anti-human-MDM2 monoclonal antibody (Chen L. et al., Proc Natl Acad Sci USA, 95: 195-200, 1998; Chen L. et al., Mol. Med. 5: 21-34, 1999) was kindly provided by J. Chen (Moffitt Cancer Center, Tampa, Fla.). Chemotherapeutic agents adriamycin and 5-fluorouracil (5-FU) were obtained from Sigma. Natural product topoisomerase I inhibitor 10-hydroxycamptothecin (HCPT) was obtained from the Midwest Co. (Beijing, China) with the purity of the drug being greater than 98% (Zhang R. et al., Cancer Chemother Pharm 41: 257-267, 1998). Cell Culture. The tumor cell lines, LS174T and DLD-1 were obtained from the American Type Culture Collection (Rockville, Md.) and cultured according to their instructions. LS 174T cells were cultured in MEM with 0.1 mM nonessential amino acids and Earle's balanced salt solution containing 10% FBS and DLD-1 cells in RPMI 1640 medium containing 10% FBS. All media included 1% penicillin/streptomycin. […] Cells were incubated with Oligos AS or ASM at various concentrations for 72 hr, in the presence of Lipofectin (7 μg/ml). […] Western Blot Analysis. The MDM2, p53 and p21 levels in cultured cells were analyzed by using the methods described previously (earlier (Chen L. et al., Proc Natl Acad Sci USA, 95: 195-200, 1998; Chen L. et al., Mol. Med. 5: 21-34, 1999; Wang H. et al., Int J. Oncol. 15: 653-660, 1999). In brief, cell lysate containing identical amounts of total protein were fractionated by SDS-PAGE and transferred to Bio-Rad Trans-Blot nitrocellulose membranes (Bio-Rad Laboratories, Hercules, Calif., USA). The nitrocellulose membrane was then incubated with blocking buffer (PBS containing 0.1% Tween 20 and 5% non-fat milk) for 1 hr at room temperature and washed with the washing buffer (PBS containing 0. 1% Tween 20) for 5 min twice. The membrane was incubated with primary (anti-MDM2, anti-p53, or anti-p21) antibody overnight at 4° C. or for 1 hr at room temperature with gentle shaking. The membrane was washed with the washing buffer for 15 min and then twice for 5 min, and then incubated with 1:5000 diluted goat anti-mouse IgG-horse radish peroxidase conjugated antibody (Bio-Rad, Hercules, Calif.) for 1 hr at room temperature. After washing as described above the protein of interest was detected by ECL reagents from Amersham (Arlington Height, Ill.). Results. LS174T Model. In vitro inhibition of MDM2 expression by Oligo AS was shown in a sequence-specific, increasing dose-dependent manner (FIG. 19). […] Control oligonucleotide, Oligo ASM had no effect on MDM2, p53 or p21 protein levels at 500 nM, the highest concentration tested in the study.
Following in vitro combination treatment of Oligos and chemotherapeutic agents HCPT, adriamycin, and 5-FU, the protein levels of MDM2, p53 and p21 were determined in LS174T cells. Cells were incubated with 400 nM Oligo in the presence of Lipofectin for 24 hr, followed by addition of various concentrations of chemotherapeutic agents and incubation for additional 24 hr.

Substance: Oligo AS: 20-mer mixed-backbone phosphorothioate oligonucleotide with 2′-O-methyl ends, 5′UGACACCTGTTCTCACUCAC-3′; SEQ ID NO:47 (mixed phosphorothioate backbone with 2'-O-methyl ends, pattern not given here)
- MDM2 expression (MDM2): specifically inhibits MDM2 expression
- inhibition of MDM2 expression ([1]; 500 nM): greater than 90%
- effect on MDM2, p53 and p21 protein levels ([1]; up to 500 nM): p53 and p21 levels elevated accordingly
- MDM2, p53 and p21 protein levels, oligo pre-treatment then 5-FU ([2]; then 5-FU 24 hr): MDM2 expression was inhibited, resulting in significant elevated p53 and p21 levels
- MDM2, p53 and p21 protein levels, oligo pre-treatment then HCPT ([2]; then HCPT 24 hr): MDM2 expression was inhibited, resulting in significant elevated p53 and p21 levels
- MDM2, p53 and p21 protein levels, oligo pre-treatment then adriamycin ([2]; then adriamycin 24 hr): MDM2 expression was inhibited, resulting in significant elevated p53 and p21 levels
